The subject of this test is Conyza species (fleabane, ERISS). Nature of the test: Field trial of post-emergence (foliar) herbicidal activity, percent weed control visually rated. The class given is in vivo. As to conditions: Cmpd 1 alone 5 g ae/ha, Table 2. The text has this: Treatments consisted of the methyl ester of 4-amino-3-chloro-6-(4-chloro-2-fluoro-3-methoxyphenyl)pyridine-2-carboxylic acid (Cmpd 1) tankmixed with saflufenacil or paraquat. The form of compound of formula (I) was applied on an acid equivalent basis, and saflufenacil and paraquat were applied on an active ingredient basis. Saflufenacil was applied as a commercial formulation containing 700 grams per kilogram (g/kg). Paraquat was applied as a commercial formulation containing 200 g/L.
Field trials were conducted under standard field conditions. Plot sizes varied from 2 meters (m) wide by 5 m long. Treatments were applied with small plot backpack sprayers, using pressurized carbon dioxide (CO2) as propellant. Pressure varied from 40-45 pounds per square inch (PSI), with spray tips typically of a Flat Fan type applying water diluent at 100 liters per hectare (L/ha). Boom size was 2 m in width. Weed sizes varied, but all treatments were applied as post-emergence treatments to weeds from 2 leaf to 2 tiller growth stages varying from 2-15 inches in height. No additional adjuvant was mixed with the treatments applied in the field.
Results in Tables 1 to 2 are field trial results for foliar applied compositions. The values reported are percent (%) control visually rated. The predicted percent (%) weed contol was determined using Colby's equation.
The following abbreviations are used in Tables 1 to 2: ERISS=Conyza species (fleabane, ERISS) g ae/ha=grams acid equivalent per hectare g ai/ha=grams active ingredient per hectare Mean % weed control=observed value of percent (%) control rated visually Predicted mean % weed control=expected value of percent (%) control as calculated by Colby's equation Cmpd 1=methyl 4-amino-3-chloro-6-(4-chloro-2-fluoro-3-methoxyphenyl)pyridine-2-carboxylate, halauxifen-methyl, or ARYLEX® DAA=days after application

Each structure is given as a SMILES string.

Regarding `COC(=O)c1nc(-c2ccc(Cl)c(OC)c2F)cc(N)c1Cl` [Cmpd 1, methyl 4-amino-3-chloro-6-(4-chloro-2-fluoro-3-methoxyphenyl)pyridine-2-carboxylate], the “Cmpd 1 Mean % weed control” value runs as follows: (17DAA) 33.75%; (28DAA) 33.75%; (43DAA) 40%.

The values are drawn from US20170181431A1, “HERBICIDAL COMPOSITIONS CONTAINING 4-AMINO-3-CHLORO-6-(4-CHLORO-2-FLUORO-3-METHOXYPHENYL) PYRIDINE-2-CARBOXYLIC ACID OR A DERIVATIVE THEREOF AND A CELL MEMBRANE DISRUPTOR HERBICIDE OR A DERIVATIVE THEREOF” (Dow AgroSciences LLC, priority 2015, published 2017).
